Source: patent US20080214518A1, “Pharmaceutical Composition Comprising an Anti-Bacterial Agent and an Active Ingredient Selected From Carveol, Thymol, Eugenol, Borneol and Carvacrol” (priority 2005, published 2008)
≈ marks a conversion by molar mass, not a printed value. Where two headings read alike, the source gives them in different places.

How the values were obtained:
Klebsiella pneumoniae = experiment: Static tests to determine MBC; type: cell-based; settings: carveol alone, Table 1
Method: (§1) The experiment was carried out with several Gram-negative and Gram-positive bacterial strains with different susceptibilities isolated in the hospital environment.
(§2) Antibacterial pharmaceutical compositions according to the invention were prepared by mixing amoxicillin at different concentrations with carveol at a sub-inhibitory concentration of 0.3 g per liter of solution or excipient (equivalent to 0.3 mg/ml). The minimal concentration of amoxicillin in combination with carveol 0.3 mg/ml that produced a bactericidal effect was determined. In each case, antibiotic activity was determined either with amoxicillin alone, or with carveol alone, or with the composition of the invention.

Bacillus subtilis = experiment: Static tests to determine MIC and MBC; type: cell-based; settings: for MIC: antibiotic alone
Method: as §1, §2
(§3) The experiment was carried out with several resistant bacterial strains isolated in the hospital environment. The antibiotic used was ampicillin, from the beta-lactam family, which is one of the most widely used antibiotics. An antibiotic pharmaceutical composition according to the invention was prepared by mixing ampicillin at different concentrations with carveol at a sub-inhibitory concentration of 0.3 g per liter of solution or excipient. This pharmaceutical composition of the invention was named Ampi-P, for potentiated ampicillin. In each case, antibiotic activity was determined either with ampicillin alone, or with carveol alone, or with the composition of the invention.
(§4) The experiment was carried out with several resistant bacterial strains isolated in the hospital environment. The antibiotic used was cephazolin, from the cephalosporin family, another class of beta-lactams which are among the most widely used antibiotics. An antibiotic pharmaceutical composition according to the invention was prepared by mixing cephazolin at different concentrations with alpha-ionone and beta-ionone at a sub-inhibitory concentration of 0.3 g per liter of solution or excipient. This pharmaceutical composition of the invention was named Cepha-P, for potentiated cephazolin. In each case, antibiotic activity was determined either with cephazolin alone, or with alpha-ionone or beta-ionone alone, or with the composition of the invention.
as §3, with “polymyxin B,” for “ampicillin,”, “peptide” for “beta-lactam”, “oldest” for “most widely used”, “polymyxin B” for “ampicillin”, “Polymix-P,” for “Ampi-P,”, “polymyxin B.” for “ampicillin.”
as §3, with “chloramphenicol,” for “ampicillin,”, “phenicol” for “beta-lactam”, “oldest” for “most widely used”, “chloramphenicol” for “ampicillin”, “Chloram-P,” for “Ampi-P,”, “chloramphenicol.” for “ampicillin.”
(§5) The experiment was carried out with several resistant bacterial strains isolated in the hospital environment. The antibiotic used was chlortetracycline, one of the oldest antibiotics. An antibiotic pharmaceutical composition according to the invention was prepared by mixing chlortetracycline at different concentrations with carveol at a sub-inhibitory concentration of 0.3 g per liter of solution or excipient.

Escherichia coli = experiment: Static tests to determine MIC and MBC; type: cell-based; settings: for MIC: antibiotic alone
Method: as §1, §2, §3, §4
as §3, with “polymyxin B,” for “ampicillin,”, “peptide” for “beta-lactam”, “oldest” for “most widely used”, “polymyxin B” for “ampicillin”, “Polymix-P,” for “Ampi-P,”, “polymyxin B.” for “ampicillin.”
as §3, with “chloramphenicol,” for “ampicillin,”, “phenicol” for “beta-lactam”, “oldest” for “most widely used”, “chloramphenicol” for “ampicillin”, “Chloram-P,” for “Ampi-P,”, “chloramphenicol.” for “ampicillin.”
as §5

Salmonella typhimurium = experiment: Static tests to determine MIC and MBC; type: cell-based; settings: for MIC: antibiotic alone
Method: as §1, §2, §3, §4
as §3, with “polymyxin B,” for “ampicillin,”, “peptide” for “beta-lactam”, “oldest” for “most widely used”, “polymyxin B” for “ampicillin”, “Polymix-P,” for “Ampi-P,”, “polymyxin B.” for “ampicillin.”
as §3, with “chloramphenicol,” for “ampicillin,”, “phenicol” for “beta-lactam”, “oldest” for “most widely used”, “chloramphenicol” for “ampicillin”, “Chloram-P,” for “Ampi-P,”, “chloramphenicol.” for “ampicillin.”
as §5

[1] = tested on: Staphylococcus epidermidis; experiment: Static tests to determine MIC and MBC; type: cell-based; settings: for MIC: antibiotic alone
Method: as §1
as §2, with “invention. […]” for “invention.”

Staphylococcus aureus = experiment: Static tests to determine MIC and MBC; type: cell-based; settings: for MBC: carveol alone; for MIC: antibiotic alone
Method: as §1, §2
as §5, with “excipient. […] In each case, antibiotic activity was determined either with chlortetracycline alone, or with carveol alone, or with the composition of the invention.” for “excipient.”
as §3, with “streptomycin, an important member of” for “ampicillin, from”, “aminoside family” for “beta-lactam family,”, “among” for “one of”, “important” for “widely used”, “streptomycin” for “ampicillin”, “This pharmaceutical composition of the invention was named Ampi-P, for potentiated ampicillin.” left out
as §3, with “erythromycin, an important member of” for “ampicillin, from”, “macrolide family” for “beta-lactam family,”, “among” for “one of”, “important” for “widely used”, “erythromycin” for “ampicillin”, “This pharmaceutical composition of the invention was named Ampi-P, for potentiated ampicillin.” left out

[2] = tested on: amoxicillin-resistant Klebsiella pneumoniae; experiment: In vivo test in mice experimentally infected by intraperitoneal injection; settings: organs of mice which died during the experiment; amoxicillin alone 10 mg/kg/day by gavage
Method: Groups of 10 mice were experimentally infected by intraperitoneal injection of 1,000,000 cells (colony-forming units) of amoxicillin-resistant Klebsiella pneumoniae.
The first group was composed of control mice which were infected and untreated.
The second group was composed of infected mice treated by gavage, 24 h post-infection, with amoxicillin alone at a dose of 10 mg/kg of body weight/day.
The third group was composed of infected mice treated by gavage, 24 h post-infection, with carveol alone at a dose of 120 mg/kg of body weight/day.
The fourth group was composed of infected mice treated by gavage, 24 h post-infection, with the pharmaceutical composition of the invention (AMOX-P) at a dose of 2 mg/kg of body weight/day of amoxicillin and 120 mg/kg of body weight/day of carveol.
The survival rate was measured over time. […] All the other mice died between the second and third day post-infection.

[3] = tested on: Escherichia coli strains susceptible to 5 μg/ml amoxicillin; type: cell-based
Method: Escherichia coli strains susceptible to 5 μg/ml amoxicillin were cultured in the presence of a sub-inhibitory concentration of 3 μg/ml, then seeded into nutrient medium (Muller Hinton) containing increasing concentrations of amoxicillin (4 then 5 then 6 μg/ml . . . ). The same procedure was carried out with amoxicillin potentiated by carvacrol at a concentration two times lower than the MIC of carvacrol alone, namely 500 μg/ml. This experiment was based on the principle that at each subcloning, a mutant resistant to the new amoxicillin concentration would multiply, giving rise to a strain more resistant than the strain from which the subcloning arose.

Mycobacterium fleii = experiment: Static tests to determine MIC and MBC; type: cell-based; settings: for MIC: antibiotic alone, exponential growth phase
Mycobacterium fortuitum = experiment: Static tests to determine MIC and MBC; type: cell-based; settings: Mycolicibacterium fortuitum; for MIC: antibiotic alone, exponential growth phase
[4] = tested on: bacterial strains isolated in the hospital environment; experiment: Static MIC/MBC tests, potentiation over all tested strains; type: cell-based; settings: antibiotic combined with carveol, alpha-ionone or beta-ionone at 0.3 mg/ml
Method: as §1, §2
The experiment was carried out with several resistant bacterial strains isolated in the hospital environment. The antibiotic used was ampicillin, from the beta-lactam family, which is one of the most widely used antibiotics. […] In each case, antibiotic activity was determined either with ampicillin alone, or with carveol alone, or with the composition of the invention.
The experiment was carried out with several resistant bacterial strains isolated in the hospital environment. […] In each case, antibiotic activity was determined either with cephazolin alone, or with alpha-ionone or beta-ionone alone, or with the composition of the invention.
The experiment was carried out with several resistant bacterial strains isolated in the hospital environment. […] This pharmaceutical composition of the invention was named Polymix-P, for potentiated polymyxin B. In each case, antibiotic activity was determined either with polymyxin B alone, or with carveol alone, or with the composition of the invention.
The experiment was carried out with several resistant bacterial strains isolated in the hospital environment. […] In each case, antibiotic activity was determined either with chloramphenicol alone, or with carveol alone, or with the composition of the invention. […]

[5] = tested on: resistant mycobacterial strains isolated in a veterinary environment; experiment: Static MIC/MBC tests, potentiation over tested mycobacterial strains; type: cell-based; settings: antibiotic combined with carvacrol or thymol at 0.3 mg/ml
[6] = first substance alone, exponential growth phase
[7] = starting from 3 μg/ml, potentiated: carvacrol 500 μg/ml
[8] = Bacillus subtilis, exponential growth phase, read-out: MIC
[9] = Escherichia coli, exponential growth phase, read-out: MIC
[10] = Salmonella enterica, TYPHIMURIUM, exponential growth phase, read-out: MIC
[11] = Staphylococcus epidermidis, exponential growth phase, read-out: MIC
[12] = Staphylococcus aureus, exponential growth phase

## C=C(C)C1CC=C(C)C(O)C1 (mixture of isomers) [Carveol, carveol]
Klebsiella pneumoniae
  MBC: 2000 µg/mL
Bacillus subtilis; Bacillus subtilis, carveol alone, Table 1, read-out: MBC
  MBC: 2000 µg/mL
Bacillus subtilis; [6]
  MBC: 2000 µg/mL
Escherichia coli; Escherichia coli, carveol alone, Table 1, read-out: MBC
  MBC: 2000 µg/mL
Escherichia coli; [6]
  MBC: 2000 µg/mL
Salmonella typhimurium; Salmonella enterica, TYPHIMURIUM, carveol alone, Table 1, read-out: MBC
  MBC: 2000 µg/mL
Salmonella typhimurium; [6]
  MBC: 2000 µg/mL
[1]; Staphylococcus epidermidis, carveol alone, Table 1, read-out: MBC
  MBC: 2000 µg/mL
[1]; [6]
  MBC: 2000 µg/mL
Staphylococcus aureus; Staphylococcus aureus, Table 1, read-out: MBC
  MBC: 2000 µg/mL
Staphylococcus aureus; exponential growth phase
  MBC: 2000 µg/mL

## CC(=O)/C=C/C1C(C)=CCCC1(C)C (stereo not drawn) [Alpha-ionone, alpha-ionone]
Bacillus subtilis; [6]
  MBC: 2000 µg/mL
Escherichia coli; [6]
  MBC: 2000 µg/mL
Salmonella typhimurium; [6]
  MBC: 2000 µg/mL
[1]; [6]
  MBC: 2000 µg/mL

## CC1(C)S[C@@H]2[C@H](NC(=O)[C@H](N)c3ccc(O)cc3)C(=O)N2[C@H]1C(=O)O [Amoxicillin, amoxicillin]
[2]
  Klebsiella pneumoniae loads in kidney, lung and bone marrow: high loads
[3]; 50 μg/ml was the highest concentration in the experiment
  Final conc. (to which resistant mutants were selected): 50 µg/mL
[3]; starting from 3 μg/ml
  No. of subclonings (to reach final conc.): 9
[3]; [7]
  Median conc. (to which resistant mutants were selected): 17 µg/mL
  No. of subclonings (to reach median conc.): 4

## CC1(C)S[C@@H]2[C@H](NC(=O)[C@H](N)c3ccccc3)C(=O)N2[C@H]1C(=O)O [Ampicillin, ampicillin]
Bacillus subtilis; [8]
  MIC: > 50 µg/mL
Escherichia coli; [9]
  MIC: > 50 µg/mL
Salmonella typhimurium; [10]
  MIC: > 50 µg/mL
[1]; [11]
  MIC: > 50 µg/mL

## CC(=O)/C=C/C1=C(C)CCCC1(C)C [Beta-ionone, beta-ionone]
Bacillus subtilis; [6]
  MBC: 2000 µg/mL
Escherichia coli; [6]
  MBC: 2000 µg/mL
Salmonella typhimurium; [6]
  MBC: 2000 µg/mL
[1]; [6]
  MBC: 2000 µg/mL

## Cc1ccc(C(C)C)cc1O [Carvacrol, carvacrol]
Mycobacterium fleii
  MBC: 1000 µg/mL (≈ 6.66 mM)
Mycobacterium fortuitum
  MBC: 1000 µg/mL (≈ 6.66 mM)

## Cc1nnc(SCC2=C(C(=O)O)N3C(=O)[C@@H](NC(=O)Cn4cnnn4)[C@H]3SC2)s1 [Cephazolin, cephazolin]
Bacillus subtilis; exponential growth phase
  MIC: >50 µg/mL
Escherichia coli; exponential growth phase
  MIC: >50 µg/mL
Salmonella typhimurium; exponential growth phase
  MIC: >50 µg/mL
[1]; exponential growth phase
  MIC: >50 µg/mL
[4]
  times lower antibiotic concentration producing bactericidal activity versus antibiotic alone: at least ten

## O=C(N[C@H](CO)[C@H](O)c1ccc([N+](=O)[O-])cc1)C(Cl)Cl [Chloramphenicol, chloramphenicol]
Bacillus subtilis; [8]
  MIC: > 50 µg/mL
Escherichia coli; [9]
  MIC: > 50 µg/mL
Salmonella typhimurium; [10]
  MIC: > 50 µg/mL
[1]; [11]
  MIC: > 50 µg/mL

## CN(C)[C@@H]1C(O)=C(C(N)=O)C(=O)[C@@]2(O)C(O)=C3C(=O)c4c(O)ccc(Cl)c4[C@@](C)(O)[C@H]3C[C@@H]12 [Chlortetracycline, chlortetracycline]
Bacillus subtilis; [8]
  MIC: > 50 µg/mL
Escherichia coli; [9]
  MIC: > 50 µg/mL
Salmonella typhimurium; [10]
  MIC: > 50 µg/mL
Staphylococcus aureus; [12]
  MIC: > 50 µg/mL

## CC[C@H]1OC(=O)[C@H](C)[C@@H](O[C@H]2C[C@@](C)(OC)[C@@H](O)[C@H](C)O2)[C@H](C)[C@@H](O[C@@H]2O[C@H](C)C[C@H](N(C)C)[C@H]2O)[C@](C)(O)C[C@@H](C)C(=O)[C@H](C)[C@@H](O)[C@]1(C)O [Erythromycin, erythromycin]
Bacillus subtilis; [8]
  MIC: > 50 µg/mL
Escherichia coli; [9]
  MIC: > 50 µg/mL
Salmonella typhimurium; [10]
  MIC: > 50 µg/mL
Staphylococcus aureus; [12]
  MIC: > 50 µg/mL
[4]
  times lower antibiotic concentration producing bactericidal activity versus antibiotic alone: two to five

## NNC(=O)c1ccncc1 [Isoniazide, isoniazide]
Mycobacterium fleii
  MIC: > 50 µg/mL
Mycobacterium fortuitum
  MIC: > 50 µg/mL
[5]
  times lower antibiotic concentration producing bactericidal activity versus antibiotic alone: at least 25 times

## CO[C@H]1/C=C/O[C@@]2(C)Oc3c(C)c(O)c4c(O)c(c(/C=N/N5CCN(C)CC5)c(O)c4c3C2=O)NC(=O)/C(C)=C\C=C\[C@H](C)[C@H](O)[C@@H](C)[C@@H](O)[C@@H](C)[C@H](OC(C)=O)[C@@H]1C [Rifampicin, rifampicin]
Mycobacterium fleii
  MIC: > 75 µg/mL
Mycobacterium fortuitum
  MIC: > 75 µg/mL
[5]
  times lower antibiotic concentration producing bactericidal activity versus antibiotic alone: at least 25 times

## [H]/N=C(/N)N[C@H]1[C@H](O)[C@@H](O)[C@H](O[C@@H]2O[C@@H](C)[C@](O)(C=O)[C@H]2O[C@@H]2O[C@@H](CO)[C@H](O)[C@@H](O)[C@@H]2NC)[C@@H](N/C(N)=N\[H])[C@@H]1O [Streptomycin, streptomycin]
Bacillus subtilis; [8]
  MIC: > 50 µg/mL
Escherichia coli; [9]
  MIC: > 50 µg/mL
Salmonella typhimurium; [10]
  MIC: > 50 µg/mL
Staphylococcus aureus; [12]
  MIC: > 50 µg/mL
[4]
  times lower antibiotic concentration producing bactericidal activity versus antibiotic alone: at least 10 times

## polymyxin B
Bacillus subtilis; exponential growth phase
  MIC: >50 µg/mL
Escherichia coli; exponential growth phase
  MIC: >50 µg/mL
Salmonella typhimurium; exponential growth phase
  MIC: 25 µg/mL
[1]; exponential growth phase
  MIC: >50 µg/mL
